For data set [1], the system named is Staphylococcus aureus ATCC 33591. The data set is described as follows: MIC by broth microdilution, Staphylococcus aureus DRCC 019 (MRSA). It counts as cell-based. To be noted: DRCC 019 = ATCC 33591, MRSA, Mueller Hinton Broth, overnight 37° C., read-out: Antimicrobial Screening (MIC) Staphylococcus aureus 019 MRSA. As to the method: (§1) Minimum Inhibiton Concentrations (MICs) were determined by broth microdilution technique as per the guidelines prescribed om the fifth edition of Approved Standards, NCCLS document M7-A5 Vol 20-No 2, 2000 Villinova, Pa.
(§2) Initial stock solution of the test compound was prepared in DMSO. Subsequent two fold dilutions were carried out in sterile Mueller Hinton Broth (Difco) (MHB).
(§3) Frozen cultures stocks were inoculated into 50 mL sterile MHB in 250 mL Erlyn Meyer flasks.
(§4) Flasks were incubated for 4 to 5 h at 35° C. on a rotary shaker at 150 rpm. Inoculum was prepared by diluting the culture in sterile MHB to obtain a turbidity of 0.5 McFarland standard. This corresponds to 1–2×10^8 CFU/mL. The stock was further diluted in sterile broth to obtain 1–2×10^6 CFU/mL. 50 μl of the above diluted inoculum was added from 1–10 wells. The plates were incubated overnight at 37° C.
(Broth dilution looks for growth in wells or tubes with falling amounts of substance.)

Data set [2] concerns Staphylococcus aureus ATCC 49951. The data set is described as follows: MIC by broth microdilution, Staphylococcus aureus DRCC 213 (Smith S). It counts as cell-based. To be noted: ATCC49951, DRCC 213 = ATCC 49951, Smith S, Mueller Hinton Broth, overnight 37° C., read-out: Antimicrobial Screening (MIC) Staphylococcus aureus 213 Smith S. As to the method: as §1, §2, §3, §4
Data set [3] deals with Staphylococcus aureus ATCC 29213. The data set is described as follows: MIC by broth microdilution, Staphylococcus aureus DRCC 035 (S). The data set is classed as cell-based. To be noted: ATCC29213, DRCC 035 = ATCC 29213, S, Mueller Hinton Broth, overnight 37° C., read-out: Antimicrobial Screening (MIC) Staphylococcus aureus 035 S. As to the method:
as §1, §2, §3, §4

Data set [4] has as its system Enterococcus faecalis ATCC 29212. The data set is described as follows: MIC by broth microdilution, Enterococcus sp DRCC 034 (S). To be noted: ATCC29212; DRCC 034 = Enterococcus faecalis ATCC 29212, S; Mueller Hinton Broth, overnight 37° C.; read-out: Antimicrobial Screening (MIC) Enterococcus sp 034 S. The data set is classed as cell-based. The protocol: as §1, §2, §3, §4

Data set [5] deals with Enterococcus faecalis NCTC 12201. Nature of the data set: MIC by broth microdilution, Enterococcus sp DRCC 153 (R). The data set is classed as cell-based. To be noted: NCTC12201; DRCC 153 = Enterococcus faecalis NCTC 12201, R; Mueller Hinton Broth, overnight 37° C.; read-out: Antimicrobial Screening (MIC) Enterococcus sp 153 R. The protocol: as §1, §2, §3, §4
The test system of data set [6] is Enterococcus faecium NCTC 12202. The data set is described as follows: MIC by broth microdilution, Enterococcus sp DRCC 154 (R). It counts as cell-based. The note with it: NCTC12202; DRCC 154 = Enterococcus faecium NCTC 12202, R; Mueller Hinton Broth, overnight 37° C.; read-out: Antimicrobial Screening (MIC) Enterococcus sp 154 R. As to the method:
as §1, §2, §3, §4

Data set [7] deals with Escherichia coli ATCC 25922. Nature of the data set: MIC by broth microdilution, E coli DRCC 18 (S). It counts as cell-based. The note with it: ATCC25922; DRCC 018 = Escherichia coli ATCC 25922, S; Mueller Hinton Broth, overnight 37° C.; read-out: Antimicrobial Screening (MIC) E coli 18 S. The protocol: as §1, §2, §3, §4

Structures are written as SMILES. ≈ marks a conversion by molar mass, not a printed value.

Consider `CSC(=S)NCc1cn(-c2ccc(N3CCOCC3)c(F)c2)nn1` [Example 67, [1-(3-Fluoro-4-morpholin-4-yl-phenyl)-1H-[1,2,3]triazol-4-ylmethyl]-dithiocarbamic acid methyl ester], for which the MIC in data set [1], in data set [2], in data set [3], in data set [4], in data set [5] and in data set [6] was 1 µg/mL (≈ 2.72 µM) throughout. For the same compound, the MIC in data set [7] was found to be 32 µg/mL (≈ 87.1 µM).

`COC(=S)NCc1cn(-c2ccc(N3CCS(=O)(=O)CC3)c(F)c2)nn1` [Example 61, {1-[4-(1,1-Dioxo-1lambda*6*-thiomorpholin-4-yl)-3-fluoro-phenyl]-1H-[1,2,3]triazol-4-ylmethyl}-thiocarbamic acid O-methyl ester]: the melting point was 184 °C. Besides, in data set [1], the MIC amounted to 2 µg/mL (≈ 5.01 µM). Also, the MIC in data set [2] amounted to 2 µg/mL (≈ 5.01 µM). For the same compound, the MIC in data set [3] was found to be 4 µg/mL (≈ 10 µM). For the same compound, the MIC in data set [4] is 2 µg/mL (≈ 5.01 µM). Besides, the MIC in data set [5] turned out to be 2 µg/mL (≈ 5.01 µM). Besides, in data set [6], the MIC was 8 µg/mL (≈ 20 µM). Further, in data set [7], the MIC is more than 32 µg/mL.

Turning to `COC(=S)NCc1cn(-c2ccc(N3CCOCC3)c(F)c2)nn1` [Example 55, [1-(3-Fluoro-4-morpholin-4-yl-phenyl)-1H-[1,2,3]triazol-4-ylmethyl]-thiocarbamic acid O-methyl ester], the melting point is 148 °C. The MIC in data set [1] worked out at 4 µg/mL (≈ 11.4 µM). Also, the MIC in data set [2] is 4 µg/mL (≈ 11.4 µM). Besides, the MIC in data set [3] is 4 µg/mL (≈ 11.4 µM). Moreover, in data set [5], the MIC was found to be 4 µg/mL (≈ 11.4 µM). The MIC in data set [6] stood at 8 µg/mL (≈ 22.8 µM). Further, the MIC in data set [7] came to 32 µg/mL (≈ 91.1 µM).

Compound `O=CNCc1cn(-c2ccc(N3CC[S+]([O-])CC3)c(F)c2)nn1` [Example 50, N-{1-[3-Fluoro-4-(1-oxo-1lambda*4*-thiomorpholin-4-yl)-phenyl]-1H-[1,2,3]triazol-4-ylmethyl}-formamide] showed a melting point of 182 to 184 °C.

Take `OCc1cn(-c2ccc(N3CCOCC3)c(F)c2)nn1` [Example 2, [1-(3-Fluoro-4-morpholin-4-yl-phenyl)-1H-[1,2,3]triazol-4-yl]-methanol]: the melting point was found to be 198 °C.

As for `COC(=S)NCc1cn(-c2cc(F)c(N3CC[S+]([O-])CC3)c(F)c2)nn1` [Example 57, 1-[3,5-Difluoro-4-(1-oxo-1lambda*4*-thiomorpholin-4-yl)-phenyl]-1H-{[1,2,3]triazol-4-ylmethyl}-thiocarbamic acid O-methyl ester], the melting point was found to be 202 °C.

Turning to `NC(=S)NCc1cn(-c2ccc(N3CC[S+]([O-])CC3)c(F)c2)nn1` [Example 77, {1-[3-Fluoro-4-(1-oxo-1lambda*4*-thiomorpholin-4-yl)-phenyl]-1H-[1,2,3]triazol-4-ylmethyl}-thiourea], the melting point lay within 228 to 230 °C.

`NCc1cn(-c2cc(F)c(N3CC[S+]([O-])CC3)c(F)c2)nn1` [Example 28, C-{1-[3,5-Difluoro-4-(1-oxo-1lambda*4*-thiomorpholin-4-yl)-phenyl]-1H-[1,2,3]triazol-4-yl}-methylamine] displayed a melting point of 190 °C.

In turn, `CSC(=S)NCc1cn(-c2ccc(N3CC[S+]([O-])CC3)c(F)c2)nn1` [Example 68, {1-[3-Fluoro-4-(1-oxo-1lambda*4*-thiomorpholin-4-yl)-phenyl]-1H-[1,2,3]triazol-4-ylmethyl}-dithiocarbamic acid methyl ester] gave a melting point of 184 °C.

For the compound `CC(=O)NCc1cn(-c2cc(F)c(N3CCOCC3)c(F)c2)nn1` [Example 41, N-[1-(3,5-Difluoro-4-morpholin-4-yl-phenyl)-1H-[1,2,3]triazol-4-ylmethyl]-acetamide], the melting point was 218 °C.

Compound `O=C(NCc1cn(-c2ccc(N3CCSCC3)c(F)c2)nn1)c1cnccn1` [Example 72, N-{1-[3-fluoro-4-(4-thiomorpholinyl)phenyl]-1H-1,2,3-triazol-4-ylmethyl}-pyrazine-2-carboxamide] came in with a melting point of 216 to 218 °C.

Compound `O=C(NCc1cn(-c2ccc(N3CCOCC3)c(F)c2)nn1)c1cnccn1` [Example 71, Pyrazine-2-carboxylic acid [1-(3-fluoro-4-morpholin-4-yl-phenyl)-1H-[1,2,3]triazol-4-ylmethyl]-amide] gave a melting point of 215 °C.

With `CS(=O)(=O)NCc1cn(-c2ccc(N3CC[S+]([O-])CC3)c(F)c2)nn1` [Example 80, N-{1-[3-Fluoro-4-(1-oxo-1lambda*4*-thiomorpholin-4-yl)-phenyl]-1H-[1,2,3]triazol-4-ylmethyl}-methanesulfonamide], the melting point was 174 to 176 °C.

In turn, `COC(=S)NCc1cn(-c2ccc(N3CCC(=C(C#N)C#N)CC3)c(F)c2)nn1` [Example 84, {1-[4-(4-Dicyanomethylene-piperidin-1-yl)-3-fluoro-phenyl]-1H-[1,2,3]triazol-4-ylmethyl}-thiocarbamic acid O-methyl ester] came in with a melting point of 198 °C.

On to `NNC(=S)NCc1cn(-c2ccc(N3CCSCC3)c(F)c2)nn1` [Example 66, 1-[3-fluoro-4-(4-thiomorpholinyl)phenyl]-1H-1,2,3-triazol-4-ylmethylamino-hydrazinomethanethione], for which the melting point was 174 to 176 °C.

`[N-]=[N+]=NCc1cn(-c2ccc(N3CCOCC3)c(F)c2)nn1` [Example 12, 4-[4-(4-Azidomethyl-[1,2,3]triazol-1-yl)-2-fluorophenyl]-morpholine] displayed a melting point of 90 °C.

As to `COC(=O)NCc1cn(-c2ccc(N3CC[S+]([O-])CC3)c(F)c2)nn1` [Example 48, {1-[3-Fluoro-4-(1-oxo-1lambda*4*-thiomorpholin-4-yl)-phenyl]-1H-[1,2,3]triazol-4-ylmethyl}-carbamic acid methyl ester], the melting point is 218 °C.

`CC(=S)NCc1cn(-c2ccc(N3CC[S+]([O-])CC3)c(F)c2)nn1` [Example 53, N-{1-[3-Fluoro-4-(1-oxo-1lambda*4*-thiomorpholin-4-yl)-phenyl]-1H-[1,2,3]triazol-4-ylmethyl}-thioacetamide] yielded a melting point of 245 °C.

With `O=C(NCc1cn(-c2ccc(N3CCOCC3)c(F)c2)nn1)C(Cl)Cl` [Example 79, 2,2-Dichloro-N-[1-(3-fluoro-4-morpholin-4-yl-phenyl)-1H-[1,2,3]triazol-4-ylmethyl]-acetamide], the melting point stood at 190 °C.

Consider `CC(=O)NCc1cn(-c2cc(F)c(N3CCSCC3)c(F)c2)nn1` [Example 43, N-[1-(3,5-Difluoro-4-thiomorpholin-4-yl-phenyl)-1H-[1,2,3]triazol-4-ylmethyl]-acetamide], for which the melting point turned out to be 210 °C.

In turn, `CC(=O)NCc1cn(-c2ccc(N3CC[S+]([O-])CC3)c(F)c2)nn1` [Example 47, N-{1-[3-Fluoro-4-(1-oxo-1lambda*4*-thiomorpholin-4-yl)-phenyl]-H-[1,2,3]triazol-4-ylmethyl}-acetamide] had a melting point of 210 °C.

Compound `CC(=O)NCc1cn(-c2cc(F)c(N3CC[S+]([O-])CC3)c(F)c2)nn1` [Example 44, N-{1-[3,5-Difluoro-4-(1-oxo-1lambda*4*-thiomorpholin-4-yl)-phenyl]-1H-triazol-4-ylmethyl}-acetamide] returned a melting point of 203 °C.

For `CNC(=S)NCc1cn(-c2ccc(N3CC[S+]([O-])CC3)c(F)c2)nn1` [Example 78, 1-{1–[3-Fluoro-4-(1-oxo-1lambda*4*-thiomorpholin-4-yl)-phenyl]-1H-[1,2,3]triazol-4-ylmethyl}-3-methyl-thiourea], the melting point was 182 to 184 °C.

Consider `COC(=S)NCc1cn(-c2ccc(N3CCC(=O)CC3)c(F)c2)nn1` [Example 82, {1-[3-Fluoro-4-(4-oxo-piperidin-1-yl)-phenyl]-1H-[1,2,3]triazol-4-ylmethyl}-thiocarbamic acid O-methyl ester], for which the melting point fell in the range of 145 to 147 °C.

In the case of `CSC(=S)OCc1cn(-c2ccc(N3CCOCC3)c(F)c2)nn1` [Example 73, Dithiocarbonic acid O-[1-(3-fluoro-4-morpholin-4-yl-phenyl)-1H-[1,2,3]triazol-4-ylmethyl]ester S-methyl ester], the melting point was 118 °C.

A word on the MIC: it is the least concentration at which growth counts as inhibited. In general, melting point refers to the temperature, or range, at which the solid turns liquid.
